Data from US11518785B2, “Peptide showing melanogenesis promoting activity and use thereof” (CAREGEN CO., LTD., priority 2017, dated 2022).
Several values for one entry are separate records, joined by “and”; a condition that tells them apart may be missing. Equal entries are not always repeated.

Assays:
Assay type in all cases: cell-based, mouse
[1] = tested on: tyrosinase in melanoma cell line (B16F10) cells; test: Tyrosinase activity assay in lysates of treated cells (L-DOPA); settings: for Tyrosinase activity (%): B16F10, 72 hours, control group = 100; for tyrosinase activity: mouse melanin cell line B16F10 treated with the peptide, result in words
Experimental: Melanoma cell line (B16F10) cells were cultured in 6-well culture plates for 24 hours, and treated with the peptide with different concentrations, followed by culture for 72 hours. The 6-well culture plates were loaded on ice and washed with cool PBS, and then 300 μl of 0.1 M sodium phosphate buffer (pH 6.8, lysis buffer) containing 1% Triton X-100 was added. The cells were collected in 1.5-ml tubes, and then cell membranes were disrupted by repeating five times rapid-freezing at […] and thawing. After centrifugation at 15,000 rpm for 10 minutes, the supernatant was collected in other 1.5-mL tubes, and the protein of the samples was quantified. The samples were diluted to have the same protein concentration and then dispensed in every three wells in 96-well culture plates, and then 20 μl of 10 mM L-DOPA was added, followed by incubation at 37° C. for 1 hour The blank and positive control were as shown in Table 5.
Then, the absorbance was measured at 475 nm, and the results are shown in FIGS. 2, 7, and 12, and Tables 6 to 8.

[2] = tested on: melanocytes (B16F10 cell line); test: Melanogenesis assay (melanin content); settings: for Melanin content (%): B16F10, 72 hours, control group = 100; for melanogenesis: mouse melanin cell line B16F10 treated with the peptide, result in words
Experimental: After seeding melanocytes (B16F10 cell line) in 6-well plates at the density of 5×10^4 cells/well, the melanocytes were cultured in an incubator at a temperature of 37° C. for 24 hours, and the medium of each plate was removed and replaced with 2% serum-containing media, followed by treatment with the present peptide at different concentrations and then incubation of 72 hours.
Then, the culture medium was removed, and the cells were taken off and then transferred into 1.5-ml tubes, followed by centrifugation at 13,000 rpm for 3 minutes to remove the supernatant. Next, cell pellets were collected to observe melanin. 150 μl of 1 N NaOH was added to the cell pellets to lyse intracellular melanin at a temperature of 60° C. for 30 minutes.

[3] = tested on: CREB phosphorylation in B16F10 cell line; test: Melanogenesis-related protein activity assay (CREB phosphorylation, western blotting); settings: B16F10 treated with the peptide, 48-hour incubation, result in words
Experimental: Melanocytes (B16F10 cell line) were seeded on 6-well culture plates at the density of 5×10^4 cells/well and incubated in an incubator for 24 hours, and the cells were treated with the peptides of the present invention with different concentrations. After 48-hour incubation, the cells were lysed, and the cells were subjected to western blotting using specific antibodies (Cell Signaling Technology, USA) to investigate the phosphorylation level of CREB, which is a signaling substance involved in melanogenesis.

[4] = tested on: MITF and tyrosinase protein in B16F10 cell line; test: Western blotting of melanogenesis-related proteins; settings: B16F10 treated with the peptide, 72-hour incubation, result in words
Experimental: Melanocytes (B16F10 cell line) were seeded on 6-well culture plates at the density of 5×10^4 cells/well and incubated in an incubator for 24 hours, and the cells were treated with the peptides of the present invention with different concentrations. After 72-hour incubation, the cells were lysed, and the cells were subjected to western blotting using antibodies (antacruz biotechnology, USA) each specific to MITF and tyrosinase, which are the factors involved in melanogenesis.

[5] = tested on: MITF mRNA in B16F10 cell line; test: RT-PCR of melanogenesis-related genes: MITF; settings: B16F10 treated with the peptide, 72 hours, result in words
Experimental: (§1) Melanocytes (B16F10 cell line) were seeded on 6-well culture plates at the density of 5×10^4 cells/well and incubated in an incubator for 24 hours. Then, the medium was replaced with […], and the cells were treated with the peptides of the present invention with different concentrations and cultured for 72 hours. Next, after RNA extraction of cells and quantification, cDNA was synthesized by using the cDNA synthesis kit (Intron, Korea). […] Then, degrees of mRNA expression of the growth factors under each sample treatment conditions were compared by running the resultants on a 5% agarose gel, and the results are shown in FIGS. 3, 8, and 13.

[6] = tested on: tyrosinase mRNA in B16F10 cell line; test: RT-PCR of melanogenesis-related genes: tyrosinase; settings: B16F10 treated with the peptide, 72 hours, result in words
Experimental: as §1

[7] = tested on: TRP1 mRNA in B16F10 cell line; test: RT-PCR of melanogenesis-related genes: TRP1; settings: B16F10 treated with the peptide, 72 hours, result in words
Experimental: as §1

Row | Substance | Tyrosinase activity (%) ([1]; 10 μM peptide) | Tyrosinase activity (%) ([1]; 50 μM peptide) | tyrosinase activity [1] | Melanin content (%) ([2]; 10 μM peptide) | Melanin content (%) ([2]; 50 μM peptide) | melanogenesis [2] | phosphorylation level of CREB [3] | protein expression involved in the process of melanogenesis (MITF, tyrosinase) [4] | mRNA expression of MITF [5] | mRNA expression of tyrosinase [6] | mRNA expression of TRP1 [7] | Tyrosinase activity (%) ([1]; 200 nM a-MSH)
1 | RVTAMRCFLL [SEQ ID NO: 3] | 114% | 173% | increased | 106% | 164% | increased | increased | increased | increased | increased | increased | 
2 | FCLGPCPYIWSL [SEQ ID NO: 1] | 157% | 201% | increased | 125% | 264% | increased | increased | increased | increased | increased | increased | 
3 | α-melanocyte stimulating hormone [a-MSH, reference compound] |  |  |  |  |  |  |  |  |  |  |  | 467% and 484%
4 | KVTAMRCFLL [SEQ ID NO: 2] | 144% | 189% | increased | 109% | 155% | increased | increased | increased | increased | increased | increased | 
